IC50 and inhibition data for 23 molecules are collected here from patent publication US9718817B2, “Aryl and heteroaryl ether compounds as ROR gamma modulators” (Glenmark Pharmaceuticals S.A., priority 2014, dated 2017).

pIC50: −log10 of the molar value.

The pIC50 is −log10 of the IC50, conventionally taken in molar units. High values mean a low IC50, low ones a high IC50. The inhibition is the percentage by which the read-out fell short of the control.

This test addresses T1, GST-tagged ROR gamma ligand binding domain (LBD) (Homo sapiens, UniProt P51449).
T1 construct: purchased Invitrogen
T1 sequence (P51449 269-508 limits assumed): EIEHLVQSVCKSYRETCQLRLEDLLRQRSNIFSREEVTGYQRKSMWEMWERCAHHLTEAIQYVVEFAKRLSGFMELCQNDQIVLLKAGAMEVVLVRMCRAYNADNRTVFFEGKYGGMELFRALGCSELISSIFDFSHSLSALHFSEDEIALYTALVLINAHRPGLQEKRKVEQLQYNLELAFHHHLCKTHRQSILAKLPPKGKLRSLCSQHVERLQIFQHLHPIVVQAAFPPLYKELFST
The test can be described thus: TR-FRET assay for ROR gamma (LanthaScreen co-activator peptide recruitment). It is filed as biochemical. The conditions noted are these: for pIC50: class symbols, from dose response curve; for inhibition at 1 µM: compound 1 μM; for inhibition at 1 µM / inhibition at 10 µM: TR-FRET ratio 520/495, percent of control; for inhibition at 10 µM: compound 10 μM. A digest of the protocol: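 Antagonist mode: 10 nM GST-RORγ LBD pre-incubated with compound 1 h at 22 °C in 25 mM HEPES pH 7.4, 100 mM NaCl, 5 mM DTT, 0.01% BSA, 4% DMSO final. Then 300 nM fluorescein-D22 co-activator peptide plus 10 nM Tb-anti-GST added, 1 h at room temperature. IC50 by nonlinear regression of the 520/495 TR-FRET ratio as percent of no-compound control.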
(In general: Time-resolved FRET reads energy transfer from a long-lived donor to a nearby acceptor.)

For the molecule `CCS(=O)(=O)c1ccc(CC(=O)Nc2ccc(C#CC(C)(C)Oc3ccc(Cl)cc3F)cc2)cc1` [Example 65, N-{4-[3-(4-Chloro-2-fluoro-phenoxy)-3-methyl-but-1-yn-1-yl]-phenyl}-2-(4-ethanesulfonyl-phenyl)-acetamide], the pIC50 was above 7.30, the inhibition at 1 µM was 83.9% and the inhibition at 10 µM came to 88.2%.

For the molecule `CCS(=O)(=O)c1ccc(CC(=O)Nc2ccc(C#CC(C)(C)Oc3ccc(Cl)c(F)c3)cc2)cc1` [Example 66, N-{4-[3-(4-Chloro-3-fluoro-phenoxy)-3-methyl-but-1-yn-1-yl]-phenyl}-2-(4-ethanesulfonyl-phenyl)-acetamide], the pIC50 was above 7.30, the inhibition at 1 µM is 84.3% and the inhibition at 10 µM was found to be 87.5%.

Regarding `CCS(=O)(=O)c1ccc(CC(=O)Nc2ccc(C#CC(C)(C)Oc3ccc(F)cc3Cl)cc2)cc1` [Example 67, N-{4-[3-(2-Chloro-4-fluoro-phenoxy)-3-methyl-but-1-yn-1-yl]-phenyl}-2-(4-ethanesulfonyl-phenyl)-acetamide], the inhibition at 1 µM was 70.5% and the inhibition at 10 µM was found to be 75.7%.

`CCS(=O)(=O)c1ccc(CC(=O)Nc2ccc(C#CC(C)(C)Oc3ccc(F)c(Cl)c3)cc2)cc1` [Example 68, N-{4-[3-(3-Chloro-4-fluoro-phenoxy)-3-methyl-but-1-yn-1-yl]-phenyl}-2-(4-ethanesulfonyl-phenyl)-acetamide]: the inhibition at 1 µM stood at 70.7% and the inhibition at 10 µM stood at 79.9%.

In the case of `CCS(=O)(=O)c1ccc(CC(=O)Nc2ccc(C#CC(C)(C)Oc3ccc(F)cc3F)cc2)cc1` [Example 69, N-{4-[3-(2,4-Difluoro-phenoxy)-3-methyl-but-1-yn-1-yl]-phenyl}-2-(4-ethanesulfonyl-phenyl)-acetamide], the pIC50 is 7.00 to 7.30, the inhibition at 1 µM was determined as 71.6% and the inhibition at 10 µM was 81.8%.

In the case of `CCS(=O)(=O)c1ccc(CC(=O)Nc2ccc(C#CC(C)(C)Oc3ccc(F)c(F)c3)cc2)cc1` [Example 70, N-{4-[3-(3,4-Difluoro-phenoxy)-3-methyl-but-1-yn-1-yl]-phenyl}-2-(4-ethanesulfonyl-phenyl)-acetamide], the pIC50 was above 7.30, the inhibition at 1 µM is 77.7% and the inhibition at 10 µM is 81.3%.

As for `CCS(=O)(=O)c1ccc(CC(=O)Nc2ccc(C#CC(C)(C)Oc3cc(F)c(F)c(F)c3)cc2)cc1` [Example 71, 2-(4-Ethanesulfonyl-phenyl)-N-{4-[3-methyl-3-(3,4,5-trifluoro-phenoxy)-but-1-yn-1-yl]-phenyl}-acetamide], the pIC50 is above 7.30, the inhibition at 1 µM is 75.9% and the inhibition at 10 µM stood at 79.9%.

Take `CCS(=O)(=O)c1ccc(CC(=O)Nc2ccc(C#CC(C)(C)Oc3ccc(F)c(F)c3F)cc2)cc1` [Example 72, 2-(4-Ethanesulfonyl-phenyl)-N-{4-[3-methyl-3-(2,3,4-trifluoro-phenoxy)-but-1-yn-1-yl]-phenyl}-acetamide]: the pIC50 is above 7.30, the inhibition at 1 µM is 76.2% and the inhibition at 10 µM was determined as 79.7%.

With `CCS(=O)(=O)c1ccc(CC(=O)Nc2ccc(C#CC(C)(C)Oc3c(F)cc(F)cc3F)cc2)cc1` [Example 73, 2-(4-Ethanesulfonyl-phenyl)-N-{4-[3-methyl-3-(2,4,6-trifluoro-phenoxy)-but-1-yn-1-yl]-phenyl}-acetamide], the pIC50 is above 7.30, the inhibition at 1 µM came to 75.4% and the inhibition at 10 µM came to 78.6%.

As for `CCS(=O)(=O)c1ccc(CC(=O)Nc2ccc(C#CC(C)(C)Oc3cc(F)c(F)cc3F)cc2)cc1` [Example 74, 2-(4-Ethanesulfonyl-phenyl)-N-{4-[3-methyl-3-(2,4,5-trifluoro-phenoxy)-but-1-yn-1-yl]-phenyl}-acetamide], the pIC50 is above 7.30, the inhibition at 1 µM is 73.6% and the inhibition at 10 µM came out at 78.8%.

`CCS(=O)(=O)c1ccc(CC(=O)Nc2ccc(C#CC(C)(C)Oc3c(F)cc(Cl)cc3F)cc2)cc1` [Example 75, N-{4-[3-(4-Chloro-2,6-difluoro-phenoxy)-3-methyl-but-1-yn-1-yl]-phenyl}-2-(4-ethanesulfonyl-phenyl)-acetamide]: the pIC50 is above 7.30, the inhibition at 1 µM was 83.2% and the inhibition at 10 µM is 84%.

Regarding `CCS(=O)(=O)c1ccc(CC(=O)Nc2ccc(C#CC(C)(C)Oc3ccc(C(F)(F)F)cc3)cc2)cc1` [Example 76, 2-(4-Ethanesulfonyl-phenyl)-N-{4-[3-methyl-3-(4-trifluoromethyl-phenoxy)-but-1-yn-1-yl]-phenyl}-acetamide], the pIC50 was above 7.30, the inhibition at 1 µM turned out to be 82.2% and the inhibition at 10 µM turned out to be 86.2%.

With `CCS(=O)(=O)c1ccc(CC(=O)Nc2ccc(C#CC(C)(C)Oc3ccc(OC(F)(F)F)cc3)cc2)cc1` [Example 77, 2-(4-Ethanesulfonyl-phenyl)-N-{4-[3-methyl-3-(4-trifluoromethoxy-phenoxy)-but-1-yn-1-yl]-phenyl}-acetamide], the negative-log IC50 (pIC50) is above 7.30, the inhibition at 1 µM stood at 82.8% and the inhibition at 10 µM was 87.1%.

Take `CCS(=O)(=O)c1ccc(CC(=O)Nc2ccc(C#CC(C)(C)Oc3ccc(OC(F)F)cc3)cc2)cc1` [Example 78, N-{4-[3-(4-Difluoromethoxy-phenoxy)-3-methyl-but-1-yn-1-yl]-phenyl}-2-(4-ethanesulfonyl-phenyl)-acetamide]: the pIC50 is above 7.30, the inhibition at 1 µM worked out at 85.2% and the inhibition at 10 µM is 87.4%.

As for `CCS(=O)(=O)c1ccc(CC(=O)Nc2ccc(C#CC(C)(C)Oc3ccc(C#N)cc3)cc2)cc1` [Example 79, N-{4-[3-(4-Cyano-phenoxy)-3-methyl-but-1-yn-1-yl]-phenyl}-2-(4-ethanesulfonyl-phenyl)-acetamide], the pIC50 was above 7.30, the inhibition at 1 µM was determined as 79.9% and the inhibition at 10 µM came out at 86.1%.

As for `CCS(=O)(=O)c1ccc(CC(=O)Nc2ccc(C#CC(C)(C)Oc3ccc(Cl)cc3F)nc2)cc1` [Example 80, N-{6-[3-(4-Chloro-2-fluoro-phenoxy)-3-methyl-but-1-yn-1-yl]-pyridin-3-yl}-2-(4-ethanesulfonyl-phenyl)-acetamide], the inhibition at 1 µM turned out to be 50.2% and the inhibition at 10 µM came out at 62.4%.

Turning to `CCS(=O)(=O)c1ccc(CC(=O)Nc2ccc3c(c2)nc(C(C)(C)Oc2ccc(C(F)(F)F)cc2)n3C)cc1` [Example 81, 2-[4-(Ethylsulfonyl)phenyl]-N-(1-methyl-2-{2-[4-(trifluoromethyl)phenoxy]propan-2-yl}-1H-benzimidazol-5-yl)acetamide], the pIC50 was below 7.00, the inhibition at 1 µM was 76% and the inhibition at 10 µM turned out to be 88.9%.

For the molecule `CCS(=O)(=O)c1ccc(CC(=O)Nc2ccc3c(c2)nc(C(C)(C)Oc2ccc(F)c(F)c2)n3C)cc1` [Example 82, N-{2-[2-(3,4-Difluorophenoxy)propan-2-yl]-1-methyl-1H-benzimidazol-5-yl}-2-[4-(ethylsulfonyl)phenyl]acetamide], the pIC50 was 7.00 to 7.30, the inhibition at 1 µM was 82% and the inhibition at 10 µM was 88.4%.

As for `CCS(=O)(=O)c1ccc(CC(=O)Nc2ccc3c(c2)nc(C(C)(C)Oc2ccc(Cl)cc2F)n3C)cc1` [Example 83, N-{2-[1-(4-Chloro-2-fluoro-phenoxy)-1-methyl-ethyl]-1-methyl-1H-benzoimidazol-5-yl}-2-(4-ethanesulfonyl-phenyl)-acetamide], the pIC50 is 7.00 to 7.30, the inhibition at 1 µM stood at 83.3% and the inhibition at 10 µM stood at 92%.

As for `CCS(=O)(=O)c1ccc(CC(=O)Nc2ccc3c(c2)nc(C(C)(C)Oc2ccc(Cl)cc2Cl)n3C)cc1` [Example 84, N-{2-[2-(2,4-Dichlorophenoxy)propan-2-yl]-1-methyl-1H-benzimidazol-5-yl}-2-[4-(ethylsulfonyl)phenyl]acetamide], the pIC50 was above 7.30, the inhibition at 1 µM was 89.7% and the inhibition at 10 µM worked out at 90.2%.

Regarding `CCS(=O)(=O)c1ccc(CC(=O)Nc2ccc3c(c2)nc(C(C)(C)Oc2ccc(Cl)c(Cl)c2)n3C)cc1` [Example 85, N-{2-[2-(3,4-Dichlorophenoxy)propan-2-yl]-1-methyl-1H-benzimidazol-5-yl}-2-[4-(ethylsulfonyl)phenyl]acetamide], the pIC50 is above 7.30, the inhibition at 1 µM is 87.1% and the inhibition at 10 µM was 91.2%.

Take `CCn1c(C(C)(C)Oc2ccc(Cl)cc2F)nc2cc(NC(=O)Cc3ccc(S(=O)(=O)CC)cc3)ccc21` [Example 86, N-{2-[2-(4-Chloro-2-fluorophenoxy)propan-2-yl]-1-ethyl-1H-benzimidazol-5-yl}-2-[4-(ethylsulfonyl)phenyl]acetamide]: the pIC50 is above 7.30, the inhibition at 1 µM was 92.8% and the inhibition at 10 µM amounted to 93.8%.

For the molecule `CCn1c(C(C)(C)Oc2ccc(Cl)c(F)c2)nc2cc(NC(=O)Cc3ccc(S(=O)(=O)CC)cc3)ccc21` [Example 87, N-{2-[1-(4-Chloro-3-fluoro-phenoxy)-1-methyl-ethyl]-1-ethyl-1H-benzoimidazol-5-yl}-2-(4-ethanesulfonyl-phenyl)-acetamide], the pIC50 is above 7.30, the inhibition at 1 µM amounted to 90.8% and the inhibition at 10 µM came to 94.8%.
